Laboratory results reported in patent US20210121466A1, “COMBINATION THERAPY OF A CHIMERIC ANTIGEN RECEPTOR (CAR) T CELL THERAPY AND A KINASE INHIBITOR” (Juno Therapeutics, Inc., priority 2018, published 2021).

How the values were obtained:
[1] = test system: anti-CD19 CAR T cells; assay: Cytolytic activity of anti-CD19 CAR T cells co-cultured with K562-CD19 target cells in the presence of ibrutinib (IncuCyte); format: cell-based, human
From the text: (§1) To generate CAR-expressing T cells, T cells were isolated by immunoaffinity-based enrichment from three healthy human donor subjects, and cells from each donor were activated and transduced with a viral vector encoding an anti-CD19 CAR. The CAR contained an anti-CD19 scFv, an Ig-derived spacer, a human CD28-derived transmembrane domain, a human 4-1BB-derived intracellular signaling domain and a human CD3 zeta-derived signaling domain. The nucleic acid construct encoding the CAR also included a truncated EGFR (tEGFR) sequence for use as a transduction marker, separated from the CAR sequence by a self-cleaving T2A sequence.
(§2) CAR-expressing CD4+ and CD8+ cells were mixed 1:1 for each donor, individually, and the pooled cells for each donor assessed in vitro under various conditions.
The target cells were labeled with NucLight Red (NLR), to permit tracking of target cells by microscopy.

[2] = test system: anti-CD19 CAR T cells; assay: Expression of CAR-T cell surface markers by flow cytometry after stimulation with irradiated K562-CD19 cells; format: cell-based, human
From the text: as §1, §2
CAR-T cells generated as described above were plated at 100,000 cells/well on 96 well Poly-D-Lysine coated plates. Irradiated K562-CD19 target cells were added at an effector to target ratio of 2.5:1. […] Cells were harvested at 1, 2, 3, and 4 days, and were analyzed by flow cytometry for T cell activation and differentiation surface markers CD69, CD107a, PD-1, CD25, CD38, CD39, CD95, CD62L, CCR7, CD45RO and for truncated EGFR (a surrogate marker for CAR-transduced cells).

[3] = test system: anti-CD19 CAR T cells; assay: Cytokine production in supernatants of CAR-T / K562-CD19 co-cultures (MSD); format: cell-based, human
From the text: as §1, §2
CAR-T cells generated as described above were plated at 100,000 cells/well on 96 well Poly-D-Lysine coated plates to which irradiated target cells (K562-CD19) were added at an effector to target ratio of 2.5:1. […] Culture supernatants were harvested every 24 hrs at days 1, 2, 3 and 4, and IFNγ, IL-2, TNFα, IL-4 and IL-10 were measured from the culture supernatants using cytokine kits from Meso Scale Discovery (MSD).

[4] = test system: anti-CD19 CAR T cells; assay: Serial restimulation assay of anti-CD19 CAR+ T cells with K562-CD19 target cells; format: cell-based, human; conditions: day 18; both concentrations (50, 500 nM); two of three donors
From the text: as §1, §2
(§3) The ability of cells to expand ex vivo following repeated stimulations in some aspects can indicates capacity of CAR-T cells to persist (e.g., following initial activation) and/or is indicative of function and/or fitness in vivo (Zhao et al. (2015) Cancer Cell, 28:415-28). Anti-CD19 CAR+ T cells generated as described above were plated in triplicate at 100,000 cells/well on 96 well Poly-D-Lysine coated plates, and irradiated target cells (K562-CD19) were added at an effector to target ratio of 2.5:1. […] A total of 7 rounds of stimulation during a 25 day culture period were carried out.

[5] = test system: anti-CD19 CAR T cells; assay: TH1 phenotype (CD4+CXCR3+CRTH2-) and activation/memory markers by flow cytometry during serial restimulation; format: cell-based, human
Protocol: as §3
A serial restimulation assay was performed as described above and cells were harvested at various times and analyzed by flow cytometry to assess percentage of TH1-phenotype (assessed as CD4+CXCR3+CRTH2−) T cells or TH2-phenotype (assessed as CD4+CXCR3−CRTH2+).

[6] = test system: anti-CD19 CAR T cells; assay: Gene expression analysis (Nanostring Immune V2 panel) after 18 days of serial stimulation; format: cell-based, human; conditions: 50 nM or 500 nM; day 18 of serial restimulation
Protocol: as §3
At day 18 after serial stimulation, RNA was isolated from anti-CD19 CAR T cells and Nanostring Immune V2 panel tests were run across 594 genes. The log 2 (fold change) of each gene was plotted against the −log 10(Raw p-value) derived from ANOVA tests of unscaled housekeeping gene normalized to count data for treatment versus control.

[7] = test system: CD19+ Nalm-6 disseminated tumor line; assay: Disseminated Nalm-6 tumor xenograft mouse model, ibrutinib by daily oral gavage; format: in vivo, NSG mice
From the text: On day zero (0), NSG mice were intravenously injected with 5×10^5 Nalm-6 cells expressing firefly luciferase. […] To permit assessment of the effect of a combination therapy with the inhibitor, a suboptimal dose of anti-CD19 CAR T cells from two different donors (generated by transducing cells derived from samples of human donor subjects essentially as described above) were i.v. injected into each mouse at a concentration of 5×10^5 CAR+ T cells per mouse at day 5. […] Eight (N=8) mice per group were monitored.
Following treatment as described above, tumor growth over time was measured by bioluminescence imaging and the average radiance (p/s/cm^2/sr) was measured. Survival of treated mice also was assessed over time.

[8] = test system: CD19+ Nalm-6 disseminated tumor line; assay: Disseminated Nalm-6 tumor xenograft mouse model, ibrutinib in drinking water; format: in vivo, NSG mice
Protocol: (§4) NSG mice described in Example 2 were intravenously injected on day 0 with 5×10^5 Nalm-6 cells expressing firefly luciferase. […] To permit assessment of the effect of a combination therapy with the inhibitor, a suboptimal dose of anti-CD19 CAR T cells was i.v. injected into the mice at 5×10^5/mouse at day 5. As a control, mice were administered the vehicle control without administration of the CAR-T cells or inhibitor.

[9] = test system: CAR+ T cells and Nalm-6 tumor cells; assay: Levels of CAR+ T cells and tumor cells in blood, bone marrow and spleen of Nalm-6 bearing mice; format: in vivo, NSG mice
Protocol: as §4
Samples were analyzed to assess presence and levels of CAR T cells (based on expression of the surrogate marker using an anti-EGFR antibody) and/or tumor cells at days 7, 12, 19 and 26 post CAR+ T cell transfer.

[10] = test system: CAR+ T cells; assay: Ex vivo immunophenotyping (flow cytometry, t-SNE) of CAR+ T cells at day 12 post CAR T transfer; format: in vivo, NSG mice
Protocol: as §4
Flow cytometry histograms showing the individual expression profiles of CD4, CD8, CD62L, CD45RA, CD44 and CXCR3 from the 4 gated t-SNE in FIG. 8B overlaid on the expression of the total population (shaded) is shown in FIG. 8C.

[11] = test system: anti-CD19 CAR-T cells from DLBCL subjects; assay: Serial restimulation and cytolytic function of anti-CD19 CAR-T cells manufactured from DLBCL patients; format: cell-based, human
From the text: Cells were subjected to serial restimulation over a 21 day culture period and monitored for cell expansion and cytotoxic activity.

[12] = test system: CAR-expressing T cells; assay: RNA-Seq molecular signature of CAR-expressing T cells after 18 days of serial stimulation; format: cell-based, human
Protocol: RNA isolation was performed using the RNEasy Micro Kit (Qiagen). Samples were sequenced and RNASeq reads were mapped to the human genome (GRCh38) and aligned to the GENCODE release 24 gene model. […] Differentially expressed genes were identified by imposing a log2 fold change cutoff of 0.5 and a Benjamini-Hochberg adjusted false discovery rate (FDR) cutoff of 0.05.

[13] = test system: CAR T cells; assay: CD62L expression by flow cytometry after 18 days of serial stimulation; format: cell-based, human; conditions: donors 2 and 3
Protocol: as §3

[14] = in vivo; cited from earlier work

Compound: C=CC(=O)N1CCC[C@@H](n2nc(-c3ccc(Oc4ccccc4)cc3)c3c(N)ncnc32)C1 [ibrutinib, 1-[(3R)-3-[4-amino-3-(4-phenoxyphenyl)pyrazolo[3,4-d]pyrimidin-1-yl]piperidin-1-yl]prop-2-en-1-one]
- cytolytic function of the anti-CD19 CAR T cells ([1]; all concentrations tested (0.5-5000 nM) during the co-culture): did not inhibit
- target cell killing ([1]; one donor, P<0.0001): modestly increased target cell killing
- cytolytic activity of anti-CD19 CAR-expressing T cells (target cell killing normalized to untreated control, AUC) ([1]; two donors, concentration increased up to 500 nM, E:T 2.5:1, 4 days): did not significantly impact
- expression of truncated EGFR surrogate marker, activation markers CD25, CD38, CD39, CD95, CD62L and phenotypic markers CCR7, CD62L, CD45RO ([2]; 5000, 500, 50, 5 and 0.5 nM, 3 donors, up to 4 days): no significant effect
- expression levels of CD69, CD107a or PD-1 ([2]; CD4+ or CD8+ cells cultured in the presence of ibrutinib): subtle decrease in expression levels
- percentage of anti-CD19 CAR T cells expressing CD69, CD107a or PD-1 ([2]; highest (supraphysiological) concentration tested): subtle decrease in the percentage
- phenotype of cells as central memory (TCM) or effector memory (TEM) subsets (CCR7, CD45RA) ([2]; over four days after stimulation): did not affect the phenotype
- IFN-γ and IL-2 production ([3]; 50 nM): some increase
- cytokine production ([3]; 50 nM, some donors): modestly increased
- cytokine concentrations ([3]; physiological concentrations of ibrutinib): did not significantly decrease
- cell numbers and population doublings of anti-CD19 CAR T cells [4]: enhanced cell numbers and population doublings
- percentage of TH1 cells ([5]; 500 nM, P<0.01): further enhanced
- additional CAR T activation or memory markers ([5]; CAR T cells from the serial stimulation assay): No significant effects
- percentage of CAR+ T cells with TH1 phenotype ([5]; after serial stimulation, greater with increasing concentrations): increase the percentage
- gene expression (594 genes) [6]: did not significantly alter gene expression
- survival vs CAR T and vehicle ([7]; greater time points, two donors, ibrutinib with CAR T, p<0.001): significantly increased survival
- median survival vs suboptimal anti-CD19 CAR T cell dose + vehicle ([7]; ibrutinib 25 mg/kg qd P.O. with CAR-T cells): increased median survival
- tumor growth vs CAR-T cells and vehicle ([7]; ibrutinib 25 mg/kg qd P.O. with suboptimal dose of anti-CD19 CAR T cells, p<0.001, p<0.0001): significantly decreased tumor growth
- tumor burden (average radiance) vs vehicle ([7]; ibrutinib alone, 25 mg/kg qd P.O., ibrutinib-resistant model): no effect on tumor burden
- tumor growth vs CAR T with vehicle alone ([8]; ibrutinib 25 mg/kg/day in drinking water with CAR T): significantly (P<0.001) decreased tumor growth
- median survival vs suboptimal anti-CD19 CAR T cell dose + vehicle ([8]; ibrutinib 25 mg/kg/day in drinking water with anti-CD19 CAR-T cells, p<0.001): increased median survival
- tumor cells detected in the blood, bone marrow or spleen vs vehicle alone ([9]; CAR+ cell treatment combined with ibrutinib): significantly fewer tumor cells
- circulating CAR+ T cells vs CAR+ T cells and vehicle ([9]; blood, ibrutinib in drinking water): significant increase
- number of CAR-T cells in the blood ([9]; day 19 post CAR-T cell transfer, p<0.05): significant increase in the number of cells
- population 4 as percentage of CAR-T cells ([10]; bone marrow, day 12, ibrutinib-treated animals): 15.2%
- phenotype of CAR+ T cells isolated from bone marrow ([10]; day 12, CAR-T cells with ibrutinib vs control): phenotypic changes were observed
- CD8+CD44hi CXCR3hi CD45RAlo CD62Lhi (population 2) and CD4+CD44hi CXCR3int CD45RAhi CD62Lhi (population 4) in bone marrow vs control mice ([10]; day 12 post CAR T transfer): increase
- cytolytic activity ([11]; 50 nM, 16 days of serial stimulation, one patient, P<0.01): increase in cytolytic activity
- cytolytic function ([11]; 500 nM, 16 days of serial stimulation, each subject): increase in cytolytic function
- proliferation of CAR T cells (cell doublings) ([11]; 50 and 500 nM, 21 day culture, both DLBCL patients): did not inhibit the proliferation
- gene expression changes ([12]; 50 nM, day 18): not significant, similar trends
- expression of HES6, HIC1, LZTFL1, NRIP1, CD38 and RARRES3 ([12]; day 18 serial stimulation): downregulation
- expression of MSC ([12]; day 18 serial stimulation): upregulation
- expression of SELL/CD62L ([12]; day 18 serial stimulation): increases
- expression of granzyme A and CD38 ([12]; day 18 serial stimulation): decreases
- CD62L expression [13]: significant increase
- Cmax [14]: 227 nM
